The values below come from US8716279B2, “Pharmaceutical compositions of clonazepam and method of use thereof” (Jazz Pharmaceuticals, Inc., priority 2006, dated 2014).

Series [1] in a line: Human pharmacokinetic, safety and tolerability study (oral, intravenous, intranasal cross-over). Conditions: metabolite after 1 mg clonazepam. The protocol:
The human pharmacokinetics, safety, and tolerability of the clonazepam compositions of the present invention formulated for intranasal delivery for therapeutic applications are evaluated using standard clinical procedures. Clonazepam compositions formulated for intranasal delivery are provided, for example, for application by the participants to intranasal mucosa.
A primary objective of initial studies in humans is to determine and compare pharmacokinetic profiles of three dosage forms of clonazepam: oral, i.v., and intranasal, following single administration. An example of such a study in humans is a cross-over study performed in 12 healthy male volunteers. Plasma and urine level of clonazepam and 7-amino-clonazepam are determined, for example, using HPLC and UV detection. […] Further the initial studies in humans are used to determine local tolerability of intranasal formulation using questionnaire and the Visual Analog Scale (VAS). VAS is a validated instrument that has been used in numerous studies to quantify subjective opening of the nasal passages. In addition, cognitive, sleepiness and mood effects are evaluated using questionnaires and scales (see, e.g., Example 10 below). Further, attention and vigilance may be evaluated using, for example, LEEDS Psychomotor Multiple Choice Reaction Time (MCRT) testing.
A human pharmacokinetic study was carried out as described in Example 8.
15 young, healthy male volunteers received a single dose of 1 mg clonazepam by oral, intravenous and intranasal routes in a three-period cross-over design.

The nature of series [2]: Spray pattern of solvent matrices from Pfeiffer unit-dose devices. Type of series: physicochemical. The note with it: 100 μL, Pfeiffer unit-dose device, 20-25° C. Here is the method:
(§1) Fourteen representative solvent matrices used for clonazepam formulations were tested for spray pattern and compared with water. The solvent mixtures were made up, spiked with minute amounts of Coomassie Brilliant Blue Dye and 100 μL were subsequently filled into Pfeiffer unit-dose devices (Pfeiffer of America, Princeton, N.J.). To measure the spray pattern, the devices were actuated below a sheet of paper that was located 3 cm above the spray nozzle. All measurements were made at ambient room temperature (20-25° C.). The smallest (Dmin) and the largest (Dmax) diameter of the blue pattern formed on the sheet of paper were measured and the results used to calculate the Dmax/Dmin ratio, the area of the pattern and the average spray angle. The plume area at 3 cm was calculated using the equation for the area of an ellipse using the half of the two diameters as the ellipse radii. Viscosity of all formulations was measured using Brookfield DV-I viscometer (Brookfield Engineering Laboratories, Inc., Middleboro, Mass.).

The nature of series [3]: Viscosity of solvent matrices. The note with it: for measured viscosity: Gilmont falling ball viscometer. Type of series: physicochemical. Here is the method: as §1
As weather may dictate substantially different conditions of use, the effect of temperature on viscosity was determined. A Gilmont falling ball viscometer was filled with diethylene glycol monoethyl ether and calibrated for several hours at each temperature.

For the compound `Nc1ccc2c(c1)C(c1ccccc1Cl)=NCC(=O)N2` [7-Amino-clonazepam], the “mean AUCt” value in series [1] (intranasal route) was 16.9 ng·h/mL; in series [1] (intravenous route), “approximately 30 ng·h/mL”; in series [1] (oral route) it was “approximately 30 ng·h/mL”. Moreover, the “mean Cmax” value is reported as 1.17 ng/mL in series [1] (intranasal route, 24-hour sampling); “approximately 2 ng/mL” in series [1] (intravenous route); “approximately 2 ng/mL” in series [1] (oral route).

With `O` [Water], in series [2], the “Plume area at 3 cm (cm^2)” value stood at 15.52 cm^2 and the “Ratio Dmax/Dmin” value was 1.10. Also, the “Avg. viscosity (cP)” value in series [3] (Brookfield DV-I viscometer, solvent matrix without clonazepam) came to 1.0 cP.

For the compound `CCOCCOCCO` [diethylene glycol monoethyl ether, Diethylene glycol monoethyl ether], the measured viscosity in series [3] (8° C.) stood at 5.4 cP; in series [3] (23° C.), 3.8 cP; in series [3] (40° C.), 3.1 cP; in series [3] (−17° C.) it was 6.6 cP.
